Measurements taken from US20050215641A1, “Compositions comprising reverse isomers of conjugated linoleic acid” (priority 2004, published 2005).
Marks after values point to notes of the source that are not given here.

Key:
[1] = test system: lactating Holstein cows; experiment: Milk fat depression model, abomasal infusion of CLA supplements, 4x4 Latin square (Example 4); assay type: in vivo; settings: for inhibitory effects on lipid synthesis: milk fat depression model, general statement; for Milk fat yield reduced / Milk fat % / Milk fat kg/d: 5 g/d of isomer of interest; for Milk fat yield reduced: 5 d; for Milk fat yield reduced / transfer efficiency of specific CLA isomers within respective treatment groups: P<0.001; for Milk fat % / Milk fat kg/d: average of day 4 and 5 of supplementation; for transfer efficiency of specific CLA isomers within respective treatment groups: abomasal infusion 5 g/d
Description: Four rumen-fistulated lactating Holstein cows (149±18 DIM) were randomly assigned in a 4×4 Latin square experiment. Treatments were abomasal infusions of 1) ethanol (control), 2) trans-10, cis-12 CLA supplement (positive control), 3) trans-9, trans-11 CLA supplement, and 4) trans-9, cis-11 CLA supplement. The trans-10, cis-12 and trans-9, trans-11 CLA supplements were of high purity (>90%), whereas the trans-9, cis-11 CLA supplement consisted mainly of 3 CLA isomers: trans-9, cis-11 (32%), cis-9, trans-11 (29%) and trans-9, trans-11 (17%). CLA supplements supplied 5 g/d of the CLA isomer of interest and the daily dose was provided by infusion at 6 h intervals. Treatment periods were 5 d in length with a 7 d washout interval. Milk yield and DMI were unaffected by treatment (P>0.05). Milk fat yield was reduced 27% by the trans-10, cis-12 CLA treatment and 15% by the trans-9, cis-11 CLA treatment, while the trans-9, trans-11 CLA treatment had no effect (P<0.001). Milk protein content and yield were reduced by the trans-9, trans-11 CLA treatment only (P<0.01). The transfer efficiency of specific CLA isomers within respective treatment groups was 22% for trans-10, cis-12 CLA, 21% for trans-9, trans-11 CLA and 46% for trans-9, cis-11 CLA (P<0.001). […] The data are summarized in Tables 4 and 5 and FIGS. 3 and 4.

[2] = test system: cows; experiment: Milk fat depression model, continuous abomasal infusion of CLA isomer emulsions (Example 3); assay type: in vivo; settings: for inhibitory effects on lipid synthesis: milk fat depression model, general statement; for Yield Fat / Concentration Fat: abomasal infusion of emulsion, 1 g/L CLA, over four days; for Yield Fat: mean treatment effects; for Concentration Fat: milk
Procedure: When CLA is prepared with alkaline isomerization of linoleic acid, the isomers t10,c12 and c9,t11 are formed. Further, trans, trans isomers of 9,11 and 10,12 can be formed catalytically at high temperatures, as well as t8,c10 and c11,t13. […] This example describes, for the first time, a biological effect of the c10,t12 isomer of CLA.
Emulsions of three different isomer preparations (see Table 2; t10,c12; t10,t12; and a mixture of t10, c12; c10,t12 and t10,t12 isomers; prepared as described in Example 1) were prepared essentially the same way as described by Chouinard, et al., J. Nutr. 129:1579 [1999]. The concentration of CLA in these emulsions was 1 g/L and the emulsions were administered continuously to cows at the rate of 3 1/24 h over four days as described by Chouinard, et al., J. Nutr. 129:1579 [1999]. Briefly, the emulsions were continuously infused into the abomasum via infusion lines that pass through the rumen cannula and omasal canal and peristaltic pumps. Milk was sampled daily and concentration of milk fat was determined by infrared analysis using Milko-Scan 133B analyser (Foss Electric, Hillerød, Denmark). […] Table 3 presents the mean treatment effects on intake and milk production.

[3] = Peroxide values (PV) by ferric thiocyanate method after storage; assay type: physicochemical; settings: after storage in open glass
Description: The present invention also contemplates stabilization of the c10,t12, c10,c12, t9,c11 and/or c9,c11 compositions by preventing oxidation of the compounds. The present invention is not limited to any one mechanism. Indeed, an understanding of the mechanism of the invention is not necessary to produce the composition or perform the methods of the present invention. […] After storage in open glass, the PV of CLA was 32; in comparison, the value for linoleic acid was 370.

**Q.** Which “inhibitory effects on lipid synthesis” value [1] does the source give for `CCCCCC/C=C\C=C/CCCCCCCC(=O)O` [c9,c11] here?
**A.** Its value is “strong inhibitory effects”.

**Q.** Which “inhibitory effects on lipid synthesis” value [2] does the source give for `CCCCC/C=C\C=C/CCCCCCCCC(=O)O` [c10,c12, c10,c12 octadecadienoic acid] here?
**A.** The value was “strong inhibitory effects”.

**Q.** Which “inhibitor of lipid synthesis” value ([2]; concluded from the effect of the isomer mixture versus purified t10,c12) does the source give for `CCCCC/C=C/C=C\CCCCCCCCC(=O)O` [c10,t12, c10,t12 octadecadienoic acid] here?
**A.** Its value is “stronger inhibitor of lipid synthesis than t10,c12”.

**Q.** And the “inhibitory effects on lipid synthesis” value [2]?
**A.** Its value is “strong inhibitory effects”.

**Q.** With `CCCCC/C=C\C/C=C\CCCCCCCC(=O)O` [linoleic acid] as the compound, how does the “peroxide values (PV)” value [3] read?
**A.** The value was 370.

**Q.** Which “Milk fat yield reduced” value [1] does the source give for `CCCCCC/C=C/C=C/CCCCCCCC(=O)O` [t9, t11 CLA] here?
**A.** Its value is “no effect”.

**Q.** And the Milk fat % [1]?
**A.** Its Milk fat % is 4.03^a %.

**Q.** And the Milk fat kg/d [1]?
**A.** The Milk fat kg/d was 0.770^a kg/d.

**Q.** And the “transfer efficiency of specific CLA isomers within respective treatment groups” value [1]?
**A.** The value was 21%.

**Q.** With `CCCCCC/C=C\C=C\CCCCCCCC(=O)O` [t9,c11, t9,c11 octadecadienoate] as the compound, how does the “inhibitory effects on lipid synthesis” value [1] read?
**A.** Its value is “strong inhibitory effects”.

**Q.** With `CCCCC/C=C\C=C\CCCCCCCCC(=O)O` [t10, c12, t10,c12 octadecadienoic acid] as the compound, how does the “Yield Fat” value [2] read?
**A.** The value was 573^ab g/day.

**Q.** What about the “Concentration Fat” value [2] of the same compound?
**A.** The value was 29.1^b g/kg.

**Q.** What about the “Milk fat yield reduced” value [1] of the same compound?
**A.** The value was 27%.

**Q.** And the Milk fat % [1]?
**A.** The Milk fat % was 2.54^d %.

**Q.** What about the Milk fat kg/d [1] of the same compound?
**A.** Its Milk fat kg/d is 0.541^c kg/d.

**Q.** And the “transfer efficiency of specific CLA isomers within respective treatment groups” value [1]?
**A.** Its value is 22%.

**Q.** For `CCCCC/C=C/C=C/CCCCCCCCC(=O)O` [t10, t12, t10,t12 CLA], which “Yield Fat” value [2] is on record?
**A.** Its value is 694^a g/day.

**Q.** And the “Concentration Fat” value [2]?
**A.** Its value is 7.2^a g/kg.

**Q.** What about the “effect on the concentration of milk fat” value ([2]; purified form) of the same compound?
**A.** The value was “did not have any effect”.
